According to ChEMBL document CHEMBL1201862, “PubChem BioAssay data set” (2004):
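96-well plates; 48 h exposure; 5 concentrations. Endpoints by linear interpolation between flanking doses. Not reached: highest tested concentration assigned. The concentration for 50% growth inhibition is given as GI50.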 The source made the active and inactive calls. No stated cut-off is given here; in the data, active = GI50 up to about 1.1 µM and inactive = higher.

Legend:
Assay in all cases: NCI tumour cell line growth inhibition, 48 h
[1] = tested on: OVCAR-5
[2] = tested on: LOX IMVI
[3] = tested on: IGROV-1
[4] = tested on: SF-539
[5] = tested on: NCI-H460
[6] = tested on: RXF 393
[7] = tested on: SW-620
[8] = tested on: RPMI-8226
[9] = tested on: HOP-62
[10] = tested on: HCC 2998
[11] = tested on: EKVX
[12] = tested on: COLO 205
[13] = tested on: K562
[14] = tested on: HL-60
[15] = tested on: RXF 631
[16] = tested on: KM12
[17] = tested on: HCT-116
[18] = tested on: U-251
[19] = tested on: HOP-18
[20] = tested on: NCI-H522
[21] = tested on: HOP-92
[22] = tested on: OVCAR-8
[23] = tested on: HT-29
[24] = tested on: SN12C
[25] = tested on: DLD-1
[26] = tested on: M14
[27] = tested on: ACHN
[28] = tested on: NCI-H23
[29] = tested on: NCI-H226
[30] = tested on: SF-295
[31] = tested on: CCRF-CEM
[32] = tested on: SNB-78
[33] = tested on: KM-20L2
[34] = tested on: SF-268
[35] = tested on: OVCAR-3
[36] = tested on: Malme-3M
[37] = tested on: OVCAR-4
[38] = tested on: TK-10
[39] = tested on: SK-OV-3
[40] = tested on: MOLT-4
[41] = tested on: SNB-19
[42] = tested on: M19-MEL
[43] = tested on: A549
[44] = tested on: A498
[45] = tested on: SNB-75
[46] = tested on: LXFL 529
[47] = tested on: DMS-114
[48] = tested on: DMS-273
[49] = tested on: UACC-257
[50] = tested on: UO-31
[51] = tested on: UACC-62
[52] = tested on: 786-0
[53] = tested on: HCT-15
[54] = tested on: CAKI-1
[55] = tested on: SK-MEL-2

In the case of `COC(=O)C(C(=O)C(=O)Nc1c(Cl)cc([N+](=O)[O-])cc1Cl)c1nc2cc(C)c(C)cc2nc1O` (stereo not given), the GI50 [1] is reported as > 100 µM (inactive), the GI50 [2] is reported as > 100 µM (inactive) and the GI50 [3] is reported as > 100 µM (inactive). For the same compound, the GI50 [4] was > 100 µM (inactive), the GI50 [5] was > 100 µM (inactive) and the GI50 [6] was > 100 µM (inactive). For the same compound, the GI50 [7] was > 100 µM (inactive), the GI50 [8] was > 100 µM (inactive) and the GI50 [9] was > 100 µM (inactive). For the same compound, the GI50 [10] was > 100 µM (inactive), the GI50 [11] was 38.9 µM (inactive) and the GI50 [12] was > 100 µM (inactive). The GI50 [13] was > 100 µM (inactive), the GI50 [14] was > 100 µM (inactive) and the GI50 [15] was > 100 µM (inactive). The GI50 [16] was > 100 µM (inactive), the GI50 [17] was > 100 µM (inactive) and the GI50 [18] was > 100 µM (inactive). The GI50 [19] was 72.6 µM (inactive), the GI50 [20] was > 100 µM (inactive) and the GI50 [21] was 47.8 µM (inactive). The GI50 [22] was > 100 µM (inactive), the GI50 [23] was > 100 µM (inactive) and the GI50 [24] was > 100 µM (inactive). The GI50 [25] was > 100 µM (inactive), the GI50 [26] was > 100 µM (inactive) and the GI50 [27] was > 100 µM (inactive). For the same compound, the GI50 [28] was > 100 µM (inactive), the GI50 [29] was > 100 µM (inactive) and the GI50 [30] was > 100 µM (inactive). The GI50 [31] was > 100 µM (inactive), the GI50 [32] was > 100 µM (inactive) and the GI50 [33] was > 100 µM (inactive). The GI50 [34] was > 100 µM (inactive), the GI50 [35] was > 100 µM (inactive) and the GI50 [36] was > 100 µM (inactive). The GI50 [37] was > 100 µM (inactive), the GI50 [38] was > 100 µM (inactive) and the GI50 [39] was > 100 µM (inactive). For the same compound, the GI50 [40] was > 100 µM (inactive), the GI50 [41] was > 100 µM (inactive) and the GI50 [42] was > 100 µM (inactive). For the same compound, the GI50 [43] was > 100 µM (inactive), the GI50 [44] was 44.9 µM (inactive) and the GI50 [45] was 86.5 µM (inactive). For the same compound, the GI50 [46] was > 100 µM (inactive), the GI50 [47] was 76.4 µM (inactive) and the GI50 [48] was > 100 µM (inactive). The GI50 [49] was > 100 µM (inactive), the GI50 [50] was > 100 µM (inactive) and the GI50 [51] was 59.2 µM (inactive). The GI50 [52] was > 100 µM (inactive), the GI50 [53] was > 100 µM and the GI50 [54] was > 100 µM (inactive). The GI50 [55] was > 100 µM (inactive).
